Experimental data taken from patent US20190053489A1, “ANTIMICROBIAL COMPOSITION” (NATIONAL UNIVERSITY CORPORATION TOKYO MEDICAL AND DENTAL …, priority 2016, published 2019).

Tests used:
MRSA IID 1677 = assay: MRSA-resistant microbe acquisition protocol (microdilution method); assay type: cell-based, Methicillin-Resistant Staphylococcus Aureus (MRSA); details: subculture 25 generations; FIG. 12
Experimental: This test employed MRSA IID 1677, and a resistant microbe acquisition protocol was carried out by use of the microdilution method proposed by Japanese Society of Chemotherapy.

[1] = system: Pseudomonas aeruginosa NBRC 13275; assay: Proliferation suppression against pseudomonas aeruginosa in a diluted medium (OD600); assay type: cell-based; details: diluted 1/2.5 TSB medium with phosphate buffer pH 7.0; complex 0.01%; FIG. 2
Experimental: (§1) This test employed Pseudomonas aeruginosa NBRC 13275, and this microbe strain was cultured in a normal broth medium at 37° C. for 20 hours. The cultured microbial solution was collected by centrifugation (3000 rpm, 10 minutes), suspended with sterilized water, and then diluted with sterilized water so that the optical density would satisfy OD600=1.0. The resultant was diluted 2000 times (corresponding to 10^6 CFU/ml) to prepare a reaction microbial solution.
Each of the TSB test medium samples was added with 100 μl of reaction microbial solution and was shake cultured under the condition of 37° C. for 48 hours. Here, the TSB test medium samples were prepared using 10 ml of 1/2.5 TSB medium added with 200 μl of 1 M phosphate buffer (pH 7.0), followed by further addition of […]
After that, 3 ml was extracted at time intervals (0, 1, and 2 days), and the optical density was measured at an absorption wavelength of 600 nm. […]

MRSA = assay: Observation of morphological change in MRSA by electron microscope; assay type: cell-based, Methicillin-Resistant Staphylococcus Aureus (MRSA)
Experimental: First, the morphological change in MRSA was observed by using a scanning electron microscope. This observation with a scanning electron microscope was carried out as follows: osmium coating (4 nm) was performed as the conductive treatment, and a low-acceleration ultra-high resolution scanning electron microscope (SU 9000 manufactured by Hitachi High-Technologies Corporation (accelerating voltage: 1 kV)) was used. In addition, the samples were MRSA added with physiological saline and MRSA added with a lysozyme-chitosan complex with a concentration of 0.2% by mass.
Next, the morphological change in MRSA was observed by using a transmission electron microscope. This observation with a transmission electron microscope was carried out as follows: the sample was sliced in 50 nm with a diamond knife as the pretreatment and was stained with uranium acetate and lead citrate, and a transmission electron microscope (JEM-1400 manufactured by JEOL Ltd.) was used. In addition, the samples were MRSA added with physiological saline and MRSA added with a lysozyme-chitosan complex with a concentration of 0.2% by mass.
Observation was carried out with a scanning electron microscope for the morphological changes in MRSA and pseudomonas aeruginosa treated with the lysozyme-chitosan complex, lysozyme alone, chitosan alone, and the mixture of lysozyme and chitosan (treatment time: 2 hours). This observation with a scanning electron microscope was carried out in the same manner as Example 8 described above: osmium coating (4 nm) was performed as the conductive treatment, and a low-acceleration ultra-high resolution scanning electron microscope (SU 9000 manufactured by Hitachi High-Technologies Corporation (accelerating voltage: 1 kV)) was used. In addition, the samples were MRSA or pseudomonas aeruginosa added with physiological saline, a lysozyme-chitosan complex with a concentration of 0.1% by mass, lysozyme of 0.05% by mass, chitosan of 0.05% by mass, and a mixture of lysozyme and chitosan, each with 0.05% by mass.

[2] = system: Mycobacterium avium Chester JCM15429; assay: Proliferation suppression against pulmonary MAC in a diluted medium (OD600); assay type: cell-based
Experimental: as §1, with “Mycobacterium avium Chester JCM15429,” for “Pseudomonas aeruginosa NBRC 13275,”, “Middlebrook 7H9” for “normal broth”, “2 weeks.” for “20 hours.”, “OD600 =1.0.” for “OD600=1.0.”
Each of the Middlebrook 7H9 test medium samples was added with 100 μl of reaction microbial solution and was statically cultured under the condition of 37° C. Here, the Middlebrook 7H9 test medium samples were prepared using 10 ml of 1/2.5 Middlebrook 7H9 medium added with
(1) 10 ml of sterilized water, (2) 10 ml of the lysozyme-chitosan complex with a concentration of 0.002% (the concentration after addition was […]), (3) 10 ml of the lysozyme-chitosan complex with a concentration of 0.02% (the concentration after addition was 0.01%), (4) 10 ml of the lysozyme-chitosan complex with a concentration of 0.2% (the concentration after addition was 0.1%), (5) 10 ml of lysozyme alone with a concentration of 0.1% (the concentration after addition was 0.05%), (6) 10 ml of chitosan alone with a concentration of 0.1% (the concentration after addition was 0.05%), and (7) 10 ml of the mixture of lysozyme and chitosan with a concentration of 0.1% (the concentration of each after addition was 0.05%).
After that, 3 ml was extracted at time intervals (0, 5, 7, and 12 days), and the optical density was measured at an absorption wavelength of 600 nm. In addition, 100 μl was extracted when necessary and seeded on the Middlebrook 7H10 agar medium, and the number of colonies produced was observed.

[3] = system: Pseudomonas aeruginosa PAO 1; assay: Proliferation suppression against pseudomonas aeruginosa PAO 1 in a standard medium (colony count method); assay type: cell-based; details: standard TSB medium; colony count 6 hours later; complex 0.2%, others 0.1%; FIG. 10
Text: This test employed Pseudomonas aeruginosa NBRC 13275 or PAO 1, and other procedures were the same as those of [Example 5] described earlier.
Note that the results of FIG. 9 are each the average value of the values obtained by carrying out the colony count method three times and that the results of FIG. 10 are each the average value of the values obtained by carrying out the colony count method five times.

lysozyme-chitosan complex: complex of lysozyme and water-soluble chitosan (molecular weight 14000 Da) bound to each other through the Maillard reaction
change of MIC (minimum inhibitory concentration) on subculture (MRSA IID 1677): hardly changed | proliferation suppression effect against pseudomonas aeruginosa past 24 hours [1]: strong proliferation suppression effect | morphological change in MRSA, scanning electron microscope, treatment time 2 hours (MRSA; complex 0.1% by mass, lysozyme 0.05%, chitosan 0.05%, mixture each 0.05%, FIG. 16): the form of MRSA has changed | morphological change in MRSA, scanning electron microscope (MRSA; complex 0.2% by mass, FIG. 13): fibrous adhesions have appeared on the outer surface of MRSA | morphological change in MRSA, transmission electron microscope (MRSA; complex 0.2% by mass, FIG. 14): fibrous structures (DNA) inside MRSA have disappeared | proliferation suppression effect against pulmonary MAC over 7 days, medium with phosphate buffer ([2]; Middlebrook 7H9 test medium further added with 10 mM phosphate buffer (pH 7.0), FIG. 5): marked proliferation suppression effect | proliferation suppression effect against pulmonary MAC, classified by concentration ([2]; diluted Middlebrook 7H9 medium, complex 0.0010, 0.01%, 0.1% after addition, FIG. 3): increased as the concentration of the lysozyme-chitosan complex increased | proliferation suppression effect against pulmonary MAC over 7 days ([2]; diluted Middlebrook 7H9 medium, complex 0.1% vs lysozyme, chitosan, mixture 0.05% each, FIG. 4): marked proliferation suppression effect | proliferation suppression effect against PAO 1 [3]: marked improvement effect compared to lysozyme alone, chitosan alone, and the mixture of lysozyme and chitosan
